The numbers were not newly measured in Sander's compilation of Henry's law constants (doi:10.1080/00022470.1982.10465374), which cites them from elsewhere.

Structures are written as SMILES.

This data set is described as follows: Henry solubility constant Hcp at 298.15 K (mol/(m3 Pa)). To be noted: reference: Shen (1982); cited value.
As for `Clc1ccc(Cl)cc1` [1,4-dichlorobenzene], the “Henry solubility constant Hcp” value was 0.0036.
Turning to `Cc1ccccc1` [methylbenzene], the “Henry solubility constant Hcp” value was 0.0017.
On to `ClC=CCCl` [1,3-dichloropropene], for which the “Henry solubility constant Hcp” value is 0.0028.
Take `CC(Cl)CCl` (centres undefined) [1,2-dichloropropane]: the “Henry solubility constant Hcp” value was 0.0035.
Take `ClC1=C(Cl)[C@]2(Cl)C3C(Cl)C(Cl)CC3[C@@]1(Cl)C2(Cl)Cl` (some centres undefined) [chlordane]: the “Henry solubility constant Hcp” value is 0.21.
Consider `c1cc2c3c(cccc3c1)CC2` [acenaphthene], for which the “Henry solubility constant Hcp” value is 0.041.
Regarding `ClC1=C(Cl)[C@]2(Cl)[C@@H]3[C@@H]4C[C@@H]([C@H]5O[C@@H]45)[C@@H]3[C@@]1(Cl)C2(Cl)Cl` [dieldrin], the “Henry solubility constant Hcp” value is 0.17.
Turning to `Clc1ccccc1` [chlorobenzene], the “Henry solubility constant Hcp” value is 0.0025.
Regarding `BrC(Br)Br` [tribromomethane], the “Henry solubility constant Hcp” value was 0.019.
As for `C=C(Cl)Cl` [1,1-dichloroethene], the “Henry solubility constant Hcp” value was 0.00066.
Consider `c1ccccc1` [benzene], for which the “Henry solubility constant Hcp” value is 0.0018.
Turning to `CC(Cl)(Cl)Cl` [1,1,1-trichloroethane], the “Henry solubility constant Hcp” value is 0.002.
In the case of `Clc1cccc(Cl)c1` [1,3-dichlorobenzene], the “Henry solubility constant Hcp” value is 0.0038.
For the compound `ClC(Cl)(Cl)C(Cl)(Cl)Cl` [hexachloroethane], the “Henry solubility constant Hcp” value was 0.001.
With `ClC(Cl)(Cl)Cl` [tetrachloromethane], the “Henry solubility constant Hcp” value was 0.00033.
`ClC1=C(Cl)C2(Cl)C3C(Cl)C=CC3C1(Cl)C2(Cl)Cl` (centres undefined) [heptachlor]: the “Henry solubility constant Hcp” value was 0.0067.
As to `ClC1=C(Cl)C(Cl)(Cl)C(Cl)=C1Cl` [hexachlorocyclopentadiene], the “Henry solubility constant Hcp” value was 0.0006.
In the case of `ClCCl` [dichloromethane], the “Henry solubility constant Hcp” value is 0.0031.
For `CCc1ccccc1` [ethylbenzene], the “Henry solubility constant Hcp” value is 0.0015.
On to `ClC(Cl)Br` [bromodichloromethane], for which the “Henry solubility constant Hcp” value was 0.0047.
`C1=Cc2cccc3cccc1c23` [acenaphthylene]: the “Henry solubility constant Hcp” value was 0.087.
Regarding `ClC(Cl)=C(Cl)C(Cl)=C(Cl)Cl` [hexachlorobutadiene], the “Henry solubility constant Hcp” value was 0.00096.
As for `ClC(Br)Br` [dibromochloromethane], the “Henry solubility constant Hcp” value was 0.013.
On to `ClC=C(Cl)Cl` [trichloroethene], for which the “Henry solubility constant Hcp” value was 0.00084.
Consider `c1ccc2c(c1)Cc1ccccc1-2` [2,3-benzindene], for which the “Henry solubility constant Hcp” value was 0.084.
Take `O=[N+]([O-])c1ccccc1` [nitrobenzene]: the “Henry solubility constant Hcp” value is 0.41.
With `ClC1=C(Cl)[C@]2(Cl)[C@H]3[C@H]([C@@H]4C=C[C@H]3C4)[C@@]1(Cl)C2(Cl)Cl` [aldrin], the “Henry solubility constant Hcp” value was 0.02.
For the compound `ClC(Cl)=C(Cl)Cl` [tetrachloroethene], the “Henry solubility constant Hcp” value is 0.00034.
With `ClC1=C(Cl)C2(Cl)C3C4OC4C(Cl)C3C1(Cl)C2(Cl)Cl` (centres undefined) [heptachlorepoxide], the “Henry solubility constant Hcp” value is 0.31.
